Results on 66 compounds are retold here after patent US11918662B2, “Heterocyclic compounds and imaging agents for imaging huntingtin protein” (CHDI Foundation, Inc., priority 2020, dated 2024).

pIC50: −log10 of the molar value. Where only a bound is given, the exact number is not on record here.

One experiment deals with T1, MBP-HTT(1-89)Q46-His(6×) (“Exon1-Q46”) protein aggregates (Homo sapiens, UniProt P42858, INS38QQQQQQQQQQQQQQQQQQQQQQQQQ).
T1 construct: MBP-HTT(1-89)Q46-His(6×); His(6×) (C); made in house
T1 sequence (P42858 with tags, fused parts or gaps with the stated changes limits assumed): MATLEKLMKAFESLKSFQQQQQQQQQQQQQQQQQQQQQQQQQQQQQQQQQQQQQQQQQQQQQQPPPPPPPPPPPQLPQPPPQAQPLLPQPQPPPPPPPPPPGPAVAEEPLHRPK
Briefly: Exon1-Q46 Radioligand Binding Assay.
Conditions: not given
On the procedure:
Exon1-Q46 Radioligand Binding Assay
For experiments 30 μM MBP-Exon1-Q46 was incubated with 150 μg/mL thrombin in assay buffer (150 mM NaCl, 50 mM Tris pH 8.0) and 2 mM CaCl2 for 16 hours at 37° C. Aggregated Exon1-Q46 was pelleted by centrifugation for 5 minutes at 13,000 rpm in a bench top centrifuge and re-dissolved in the same volume of assay buffer. […] For the RBA, Q46 protein aggregates and test compounds were pre-incubated in assay buffer for 20 minutes at room temperature, in 100 μL/well in a 96-well plate (pp, round bottom). Then, ligand was added in 50 μL/well and incubated for 60 minutes at 37° C. Final assay concentrations were […] test compound, 1 μM Exon1-Q46 protein (equivalent monomer concentration) and 0.3 nM ligand [^3H3-methyl]-5-((5-methoxypyridin-2-yl)methoxy)-2-(pyrazin-2-yl)benzo[d]oxazole. Samples were transferred onto GF/B filter plates and washed 2× with 200 μL PBS using a Filtermate Harvester. After drying filter plates for 1 hour at 55° C., the back of the plates were sealed with foil and 30 μL/well scintillation fluid (Packard MicroScint 40) added, incubated for 15 minutes in the dark and counted in a MicroBeta reader. […] IC50 values were determined with a sigmoidal inhibition model with four variables (top, bottom, slope, IC50) in a global fit using the normalized replicate data.
`COc1ccc(NC(=O)CCCn2c(=O)c3cccn3c3ccccc32)nc1` [Example 5-5]: the pIC50 was > 7.00.

Still in this experiment, the particulars now being: displacement of 0.3 nM [3H3-methyl]-5-((5-methoxypyridin-2-yl)methoxy)-2-(pyrazin-2-yl)benzo[d]oxazole from 1 μM aggregated Exon1-Q46, 60 minutes at 37° C.; read-out: Potency Range (IC50).
For `COc1ccc(NC(=O)CCCn2c(=O)c3cccn3c3ccccc32)cc1` [Example 5-2], the pIC50 is > 7.00.
Still for that read-out and setting: under `COc1cccc(NC(=O)CCCn2c(=O)c3cccn3c3ccccc32)c1` [Example 5-3] stands > 7.00; under `COc1ccnc(NC(=O)CCCn2c(=O)c3cccn3c3ccccc32)c1` [Example 5-4], > 7.00; under `COc1ccc2c(c1)n(CCCC(=O)Nc1ccc(C)cc1)c(=O)c1cccn12` [Example 5-6], > 7.00.
In the case of `COc1ccc(NC(=O)CCCn2c(=O)c3cccn3c3ccc(OC)cc32)cc1` [Example 5-7], the pIC50 is > 7.00.
Regarding `COc1cccc(NC(=O)CCCn2c(=O)c3cccn3c3ccc(OC)cc32)c1` [Example 5-8], the pIC50 was > 7.00.
For `COc1ccc(NC(=O)CCCn2c(=O)c3cccn3c3ccc(OC)cc32)nc1` [Example 5-9], the pIC50 was > 7.00.
Take `COc1ccnc(NC(=O)CCCn2c(=O)c3cccn3c3ccc(OC)cc32)c1` [Example 5-10]: the pIC50 was > 7.00.
With `COc1cccc(NC(=O)CCCn2c(=O)c3nccn3c3ccc(F)cc32)c1` [Example 5-11], the pIC50 was > 7.00.
As to `Cc1ccc(NC(=O)CCCn2c(=O)c3nccn3c3ccc(F)cc32)cc1` [Example 5-12], the pIC50 is > 7.00.
As for `COc1ccnc(NC(=O)CCCn2c(=O)c3nccn3c3ccc(F)cc32)c1` [Example 5-13], the pIC50 was 6.30 to 7.00.
On to `COc1ccc(NC(=O)CCCn2c(=O)c3nccn3c3ccc(F)cc32)nc1` [Example 5-14], for which the negative logarithm of the IC50 (pIC50) was > 7.00.
As to `O=C(CCCn1c(=O)c2cccn2c2ccccc21)NC1CCCCCC1` [Example 5-15], the pIC50 was 6.30 to 7.00.
For `O=C(CCCn1c(=O)c2cccn2c2ccccc21)N1CCCCC1` [Example 5-18], the pIC50 was > 7.00.
For `Cc1ccc(NC(=O)CCCn2c(=O)c3cccn3c3cnccc32)cc1` [Example 6-1], the pIC50 was > 7.00.
On to `COc1ccc(NC(=O)CCCn2c(=O)c3cccn3c3cnccc32)cc1` [Example 6-2], for which the pIC50 is > 7.00.
Still for that read-out and setting: with `COc1cccc(NC(=O)CCCn2c(=O)c3cccn3c3cnccc32)c1` [Example 6-3] the figure was > 7.00; with `COc1ccc(NC(=O)CCCn2c(=O)c3cccn3c3cnccc32)nc1` [Example 6-4], > 7.00; with `COc1ccnc(NC(=O)CCCn2c(=O)c3cccn3c3cnccc32)c1` [Example 6-5], > 7.00.
For `COc1ccc(NC(=O)CCn2c(=O)c3ccc(Cl)n3c3ccc(F)cc32)nc1` [Example 7-1], the pIC50 was > 7.00.
On to `COc1ccc(NC(=O)CCn2c(=O)c3ccnn3c3ccc(F)cc32)nc1` [Example 8-1, 3-{7-Fluoro-4-oxo-4H,5H-pyrazolo[1,5-a]quinoxalin-5-yl}-N-(5-methoxypyridin-2-yl)propanamide], for which the pIC50 is > 7.00.
Turning to `O=C(CCn1c(=O)c2ccnn2c2ccc(F)cc21)Nc1ccccc1F` [Example 8-2], the pIC50 is > 7.00.
Still for that read-out and setting: under `COc1ncccc1NC(=O)CCn1c(=O)c2ccnn2c2ccc(F)cc21` [Example 8-3] stands > 7.00; under `O=C(CCn1c(=O)c2ccnn2c2ccc(F)cc21)N1CCc2ncccc21` [Example 8-4], > 7.00.
`COc1ccccc1NC(=O)CCn1c(=O)c2ccnn2c2ccc(F)cc21` [Example 8-5]: the pIC50 is > 7.00.
On to `O=C(CCn1c(=O)c2ccnn2c2ccc(F)cc21)N1CCc2cnccc21` [Example 8-6], for which the pIC50 was > 7.00.
On to `O=C(CCn1c(=O)c2ccnn2c2ccc(F)cc21)Nc1ccncc1F` [Example 8-7], for which the pIC50 is > 7.00.
Take `O=C(CCn1c(=O)c2ccnn2c2ccc(F)cc21)N1Cc2cccnc2C1` [Example 8-8]: the negative-log IC50 (pIC50) is > 7.00.
Regarding `Cc1cccc(NC(=O)CCn2c(=O)c3ccnn3c3ccc(F)cc32)n1` [Example 8-9], the pIC50 was > 7.00.
Take `Cc1ccc(NC(=O)CCn2c(=O)c3ccnn3c3ccc(F)cc32)nc1` [Example 8-10]: the pIC50 is > 7.00.
As for `Cc1ccnc(NC(=O)CCn2c(=O)c3ccnn3c3ccc(F)cc32)c1` [Example 8-11], the pIC50 is > 7.00.
As to `O=C(CCn1c(=O)c2ccnn2c2ccc(F)cc21)Nc1ccc(F)cn1` [Example 8-12], the pIC50 is > 7.00.
For `O=C(CCn1c(=O)c2ccnn2c2ccc(F)cc21)N1CCc2ccncc21` [Example 8-13], the negative logarithm of the IC50 (pIC50) is > 7.00.
Take `COc1ncccc1NC(=O)CCn1c(=O)c2cnn(C)c2c2ccc(F)cc21` [Example 9-1]: the pIC50 is > 7.00.
Consider `Cn1ncc2c(=O)n(CCC(=O)N3CCc4ccccc43)c3cc(F)ccc3c21` [Example 9-2], for which the pIC50 was > 7.00.
Turning to `COc1ccccc1NC(=O)CCn1c(=O)c2cnn(C)c2c2ccc(F)cc21` [Example 9-3], the pIC50 was > 7.00.
`Cn1ncc2c(=O)n(CCC(=O)N3Cc4cccnc4C3)c3cc(F)ccc3c21` [Example 9-4]: the pIC50 was > 7.00.
Consider `Cn1ncc2c(=O)n(CCC(=O)N3CCc4ncccc43)c3cc(F)ccc3c21` [Example 9-5], for which the pIC50 is > 7.00.
For the compound `COc1ccncc1NC(=O)CCn1c(=O)c2cnn(C)c2c2ccc(F)cc21` [Example 9-6], the pIC50 was > 7.00.
For `Cn1ncc2c(=O)n(CCC(=O)Nc3ccncc3F)c3cc(F)ccc3c21` [Example 9-7], the pIC50 was > 7.00.
Still for that read-out and setting: with `Cn1ncc2c(=O)n(CCC(=O)N3Cc4ccccc4C3)c3cc(F)ccc3c21` [Example 9-8] the figure was > 7.00; with `Cn1ncc2c(=O)n(CCC(=O)N3CCc4ccncc43)c3cc(F)ccc3c21` [Example 9-9], > 7.00.
In the case of `Cn1ncc2c(=O)n(CCC(=O)N3CCc4cnccc43)c3cc(F)ccc3c21` [Example 9-10], the pIC50 is > 7.00.
For `Cn1ncc2c(=O)n(CCC(=O)Nc3ccccc3F)c3cc(F)ccc3c21` [Example 9-11], the pIC50 was > 7.00.
Same read-out and setting: with `Cn1ncc2c(=O)n(CCC(=O)N3Cc4ccncc4C3)c3cc(F)ccc3c21` [Example 9-12] the figure was > 7.00.
Turning to `Cn1ncc2c(=O)n(CCC(=O)Nc3cccc(F)c3F)c3cc(F)ccc3c21` [Example 9-13], the pIC50 is > 7.00.
On to `Cn1ncc2c(=O)n(CCC(=O)N3CCc4ccccc4C3)c3cc(F)ccc3c21` [Example 9-14], for which the pIC50 is > 7.00.
As to `Cn1ncc2c(=O)n(CCC(=O)Nc3cc(Cl)ccc3F)c3cc(F)ccc3c21` [Example 9-15], the negative-log IC50 (pIC50) is > 7.00.
For `Cn1ncc2c(=O)n(CCC(=O)Nc3ccc(Cl)cc3F)c3cc(F)ccc3c21` [Example 9-16], the pIC50 was > 7.00.
The same measure, in the same setting: under `Cn1ncc2c(=O)n(CCC(=O)Nc3ccccc3Cl)c3cc(F)ccc3c21` [Example 9-17] stands > 7.00; under `Cn1ncc2c(=O)n(CCC(=O)Nc3ccc(F)cc3F)c3cc(F)ccc3c21` [Example 9-18, N-(2,4-Difluorophenyl)-3-(7-fluoro-1-methyl-4-oxo-pyrazolo[4,3-c]quinolin-5-yl)propanamide], > 7.00.
As to `Cn1ncc2c(=O)n(CCC(=O)Nc3cccc(Cl)c3F)c3cc(F)ccc3c21` [Example 9-19], the pIC50 was > 7.00.
The same measure, in the same setting: with `COc1ccc(NC(=O)CCn2c(=O)c3cnn(C)c3c3ccc(F)cc32)c(F)c1` [Example 9-20] the figure was > 7.00; with `Cn1ncc2c(=O)n(CCC(=O)Nc3cc(F)ccc3F)c3cc(F)ccc3c21` [Example 9-21], > 7.00; with `Cn1ncc2c(=O)[nH]c3cc(F)ccc3c21` [Example 9-22], > 7.00.
Still for that read-out and setting: with `COc1ccc(NC(=O)CCn2c(=O)c3cnn(C)c3c3ccc(F)cc32)nc1` [Example 9-23] the figure was > 7.00; with `C[C@@H]1CN(C(=O)CCn2c(=O)c3cnn(C)c3c3ccc(F)cc32)C[C@H]1C` [Example 9-24], > 7.00; with `Cc1cccc(NC(=O)CCn2c(=O)c3cnn(C)c3c3ccc(F)cc32)c1F` [Example 9-25], > 7.00.
As to `Cc1nn(C)c2c1c(=O)n(CCC(=O)Nc1ccc(F)cc1F)c1cc(F)ccc21` [Example 9-26], the pIC50 is > 7.00.
Take `Cc1nn(C)c2c1c(=O)n(CCC(=O)Nc1ccccc1F)c1cc(F)ccc21` [Example 9-27]: the pIC50 is > 7.00.
For the compound `COc1ccc(NC(=O)CCn2c(=O)c3cn(C)nc3c3ccc(F)cc32)nc1` [Example 9-28], the pIC50 was > 7.00.
In the case of `Cn1ncc2c(=O)n(CCC(=O)Nc3ccc(F)cc3)c3cc(F)ccc3c21` [Example 9-29], the pIC50 is > 7.00.
As for `Cn1ncc2c(=O)n(CCC(=O)Nc3cccc(F)c3)c3cc(F)ccc3c21` [Example 9-30], the pIC50 was > 7.00.
Consider `Cn1ncc2c(=O)n(CCC(=O)O)c3cc(F)ccc3c21` [Example 9-31], for which the negative-log IC50 (pIC50) was 5.00 to 6.30.
Turning to `O=C(CCn1c(=O)c2cccn2c2ccc(F)cc21)Nc1ccc(O)cn1` [Example 10-1, 3-{7-Fluoro-4-oxo-4H,5H-pyrrolo[1,2-a]quinoxalin-5-yl}-N-(5-hydroxypyridin-2-yl)propanamide], the pIC50 is > 7.00.

As usually defined, the pIC50 is the negative decadic logarithm of the IC50, by convention in mol/L.
